From patent US11897862B2 (Gilead Sciences, Inc., priority 2022, dated 2024)

How the values were obtained:
Type in all cases: cell-based
IKZF2 [1] = molecular target: T1, IKZF2 (Homo sapiens, UniProt Q96SW2+Q9UKS7); test: Human whole blood IKZF2 degradation (flow cytometry, CD4/CD25/Foxp3+ Treg cells); design: endogenous in cells; settings: 24 hrs incubation, IKZF2 MFI in CD4/CD25/Foxp3+ Treg cells, flow cytometry; for DC50: read-out: IKZF2 EC50
Description: In vitro IKZF2 potency was assessed in human whole blood using a fluorescence activated cell sorting assay. 50 μL of freshly collected blood from healthy human volunteers was incubated with Immunocult CD3/CD28 activator (Stemcell Technologies) and solution of testing compounds (serially-diluted) for 24 hrs hours at 37° C. in 384 well plates. The treated red blood cells were removed by adding lysis buffer (BD cat #558049) then the cells were fixed, permeabilized, and stained with anti-CD4 (BD cat #564419), anti-Foxp3 (Invitrogen cat #48-4777-42), anti-IKZF1 (Cell Signaling Tech. cat #33462S), and anti-IKZF2(Cell Signaling Tech. cat #65432S) antibodies. The median fluorescent intensity (MFI) of IKZF2 signal from CD4/CD25/Foxp3+ Treg cells and MFI of IKZF1 signal from CD4+ T cells were quantified in the same samples by flow cytometry using an Attune instrument. EC50 and Dmax of each compound was determined by plotting the MFI and DMSO treated wells were used as control. Asterisks (*) indicate examples for which data represents an average of n≥3 repeat experiments.
Target sequence in this assay (Q9UKS7 whole entry): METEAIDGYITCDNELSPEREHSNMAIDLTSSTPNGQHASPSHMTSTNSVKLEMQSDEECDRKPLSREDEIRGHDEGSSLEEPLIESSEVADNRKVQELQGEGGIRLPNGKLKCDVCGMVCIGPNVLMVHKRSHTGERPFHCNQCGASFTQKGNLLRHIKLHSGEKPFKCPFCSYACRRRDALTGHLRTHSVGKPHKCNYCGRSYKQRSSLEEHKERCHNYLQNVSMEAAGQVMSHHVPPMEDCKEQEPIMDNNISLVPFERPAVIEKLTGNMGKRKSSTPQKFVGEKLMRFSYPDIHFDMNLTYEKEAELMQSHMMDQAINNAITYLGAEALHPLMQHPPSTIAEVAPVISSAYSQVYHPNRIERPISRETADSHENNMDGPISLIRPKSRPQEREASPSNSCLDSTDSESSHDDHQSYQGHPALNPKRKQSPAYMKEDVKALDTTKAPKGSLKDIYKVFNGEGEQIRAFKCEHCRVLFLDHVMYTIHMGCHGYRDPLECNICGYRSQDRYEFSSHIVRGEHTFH
Target sequence in this assay (Q96SW2 whole entry): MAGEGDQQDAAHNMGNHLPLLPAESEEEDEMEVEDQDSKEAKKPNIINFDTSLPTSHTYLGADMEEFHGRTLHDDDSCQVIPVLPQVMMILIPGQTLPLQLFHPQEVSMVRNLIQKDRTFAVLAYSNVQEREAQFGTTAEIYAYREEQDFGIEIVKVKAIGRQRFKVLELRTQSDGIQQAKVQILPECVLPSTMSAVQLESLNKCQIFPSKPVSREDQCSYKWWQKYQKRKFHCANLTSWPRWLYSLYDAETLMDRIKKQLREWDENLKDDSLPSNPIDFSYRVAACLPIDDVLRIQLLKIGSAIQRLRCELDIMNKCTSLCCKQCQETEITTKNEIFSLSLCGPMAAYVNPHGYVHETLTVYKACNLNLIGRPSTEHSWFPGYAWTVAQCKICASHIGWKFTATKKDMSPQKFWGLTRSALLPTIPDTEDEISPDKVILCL
Target sequence in this assay (Q16531 whole entry partner): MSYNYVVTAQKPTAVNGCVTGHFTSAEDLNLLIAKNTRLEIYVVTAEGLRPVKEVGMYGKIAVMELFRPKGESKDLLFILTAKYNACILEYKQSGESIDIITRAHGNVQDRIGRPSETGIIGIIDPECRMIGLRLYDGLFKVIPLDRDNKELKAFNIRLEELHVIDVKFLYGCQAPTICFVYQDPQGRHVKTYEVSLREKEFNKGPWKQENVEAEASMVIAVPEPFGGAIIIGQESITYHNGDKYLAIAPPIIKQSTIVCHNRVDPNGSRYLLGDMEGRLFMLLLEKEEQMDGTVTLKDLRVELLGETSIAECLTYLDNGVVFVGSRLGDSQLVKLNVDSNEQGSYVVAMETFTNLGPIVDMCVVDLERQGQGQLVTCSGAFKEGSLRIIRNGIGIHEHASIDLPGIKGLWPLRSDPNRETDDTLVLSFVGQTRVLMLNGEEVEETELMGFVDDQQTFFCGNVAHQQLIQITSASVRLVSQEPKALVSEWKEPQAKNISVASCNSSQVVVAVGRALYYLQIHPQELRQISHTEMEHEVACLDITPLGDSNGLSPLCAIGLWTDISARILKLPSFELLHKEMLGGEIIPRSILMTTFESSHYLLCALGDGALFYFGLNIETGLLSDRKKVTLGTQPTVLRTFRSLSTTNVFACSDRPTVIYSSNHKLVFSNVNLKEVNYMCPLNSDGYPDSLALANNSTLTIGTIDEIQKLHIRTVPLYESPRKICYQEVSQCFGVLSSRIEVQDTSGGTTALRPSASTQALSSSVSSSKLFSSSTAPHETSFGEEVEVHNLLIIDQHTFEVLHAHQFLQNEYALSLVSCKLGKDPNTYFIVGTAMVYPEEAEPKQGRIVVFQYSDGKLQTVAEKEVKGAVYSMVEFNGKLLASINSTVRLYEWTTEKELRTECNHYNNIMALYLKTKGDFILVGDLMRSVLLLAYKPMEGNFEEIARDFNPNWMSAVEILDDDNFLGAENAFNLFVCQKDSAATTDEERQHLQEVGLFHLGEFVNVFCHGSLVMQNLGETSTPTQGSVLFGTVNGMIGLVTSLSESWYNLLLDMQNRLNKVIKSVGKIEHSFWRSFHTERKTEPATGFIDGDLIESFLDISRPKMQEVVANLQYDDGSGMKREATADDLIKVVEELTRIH

IKZF1 = molecular target: T2, IKZF1 (Homo sapiens, UniProt Q13422+Q96SW2); test: HEK293 HiBiT in vitro degradation of IKZF1; settings: for DC50: 18-24 hr incubation, normalized to DMSO control, read-out: IKZF1 EC50; for Dmax: HEK293, HEK293 HiBiT
T2 construct: expressed in transfected cells
How it was run: (§1)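 Dox-inducible ([…] final, overnight) HEK293 Flp-In T-REx, single-copy target-HiBiT C-terminal fusion; compound serial dilution, 18-24 h, 37 °C; lytic Nano-Glo luminescence; EC50, Dmax.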

IKZF2 [2] = molecular target: T1, IKZF2; test: HEK293 HiBiT in vitro degradation of IKZF2; design: expressed in transfected cells; settings: for DC50 / IKZF2 Dmax: HEK293 HiBiT; for DC50: 18-24 hr incubation, normalized to DMSO control, read-out: IKZF2 EC50; for IKZF2 Dmax / Dmax: maximum degradation at the highest concentration tested; for Dmax: HEK293, HEK293 HiBiT
How it was run: as §1
Target sequence in this assay (Q9UKS7 1-500 isoform Q9UKS7-2): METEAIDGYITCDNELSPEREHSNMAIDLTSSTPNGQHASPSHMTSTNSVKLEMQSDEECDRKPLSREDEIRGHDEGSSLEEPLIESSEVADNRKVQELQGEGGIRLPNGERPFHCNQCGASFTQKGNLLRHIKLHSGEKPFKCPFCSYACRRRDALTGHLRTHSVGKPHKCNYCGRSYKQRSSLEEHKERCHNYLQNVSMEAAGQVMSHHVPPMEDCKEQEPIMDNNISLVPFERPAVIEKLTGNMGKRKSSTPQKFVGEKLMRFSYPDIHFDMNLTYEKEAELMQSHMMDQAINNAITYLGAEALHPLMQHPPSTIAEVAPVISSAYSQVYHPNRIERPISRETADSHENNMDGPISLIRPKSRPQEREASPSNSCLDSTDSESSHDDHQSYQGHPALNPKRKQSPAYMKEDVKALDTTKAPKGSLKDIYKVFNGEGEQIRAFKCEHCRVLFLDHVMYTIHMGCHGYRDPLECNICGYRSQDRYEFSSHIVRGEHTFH
Target sequence in this assay (Q96SW2 whole entry): as the sequence (Q96SW2 whole entry) above
Target sequence in this assay (Q16531 whole entry partner): as the sequence (Q16531 whole entry partner) above

[3] = maximum degradation at the highest concentration tested

T2 sequence (Q13422 whole entry): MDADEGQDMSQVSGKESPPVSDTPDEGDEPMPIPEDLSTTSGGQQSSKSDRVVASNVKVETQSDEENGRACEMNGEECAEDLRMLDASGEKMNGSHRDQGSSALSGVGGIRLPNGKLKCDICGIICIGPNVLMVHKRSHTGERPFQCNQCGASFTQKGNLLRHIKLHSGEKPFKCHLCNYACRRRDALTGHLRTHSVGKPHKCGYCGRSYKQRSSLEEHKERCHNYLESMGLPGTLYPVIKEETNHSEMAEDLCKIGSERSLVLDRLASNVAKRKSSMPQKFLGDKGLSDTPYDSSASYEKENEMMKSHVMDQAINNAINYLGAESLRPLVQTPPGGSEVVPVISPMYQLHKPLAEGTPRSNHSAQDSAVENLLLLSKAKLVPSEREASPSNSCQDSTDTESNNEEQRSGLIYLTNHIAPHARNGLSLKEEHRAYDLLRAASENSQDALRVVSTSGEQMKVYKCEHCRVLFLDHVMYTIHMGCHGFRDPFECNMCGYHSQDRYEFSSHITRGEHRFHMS
T2 sequence (Q96SW2 whole entry): as the sequence (Q96SW2 whole entry) above
T2 sequence (Q16531 whole entry partner): as the sequence (Q16531 whole entry partner) above

| Compound | Dmax (IKZF2 [1]) [%] | DC50 (IKZF2 [1]) [nM] | DC50 (IKZF1; HEK293 HiBiT) [nM] | IKZF1 Dmax (IKZF1; HEK293 HiBiT, maximum degradation at the highest concentration tested) [%] | DC50 (IKZF2 [2]) [nM] | IKZF2 Dmax (IKZF2 [2]) [%] | Dmax (IKZF2 [2]) [%] | IKZF2 Dmax (IKZF2 [1]) [%] | Dmax (IKZF1; [3]) [%] |
| --- | --- | --- | --- | --- | --- | --- | --- | --- | --- |
| O=C1CCC(N2Cc3cc(C[C@H]4CCCC[C@@H]4NC4CCC(C(F)(F)F)CC4)ccc3C2=O)C(=O)N1 (single isomer, unassigned) [Example 122] | 97 | 2 | 57 | 45 | 2 | 96 | – | – | – |
| CC(N[C@H]1CCCC[C@@H]1Cc1ccc2c(c1)CN(C1CCC(=O)NC1=O)C2=O)C1CC(F)(F)C1 (single isomer, unassigned) [Example 136] | 97 | 6 | > 1000 | – | 4 | – | 97 | – | – |
| CC(N[C@H]1CCCC[C@@H]1Cc1ccc2c(c1)CN(C1CCC(=O)NC1=O)C2=O)C1CC(F)(F)C1 (single isomer, unassigned) [Example 137] | – | 2 | 54 | – | 1 | 97 | – | 99 | 34 |
| O=C1CCC(N2Cc3cc(C[C@H]4CCCC[C@@H]4NC4CCC(OC(F)(F)F)CC4)ccc3C2=O)C(=O)N1 (single isomer, unassigned) [Example 145] | 100 | 4 | 55 | – | 2 | – | 96 | – | 44 |
| CC(N[C@H]1CCCO[C@@H]1Cc1ccc2c(c1F)CN(C1CCC(=O)NC1=O)C2=O)C1CCC1 (single isomer, unassigned) [Example 247] | 95 | 4 | > 1000 | – | 5 | – | 97 | – | – |
| CC(CC(F)(F)F)N[C@H]1CCCC[C@@H]1Cc1ccc2c(c1)CN(C1CCC(=O)NC1=O)C2=O (single isomer, unassigned) [Example 250] | 100 | 4 | 117 | – | 2 | 97 | – | – | 30 |
| CC(N[C@H]1CCCC[C@@H]1Cc1ccc2c(c1)CN(C1CCC(=O)NC1=O)C2=O)C1(C#N)CC1 (single isomer, unassigned) [Example 256] | 95 | 10 | > 1000 | – | – | – | – | – | – |
| CC(CCC(F)F)N[C@H]1CCCO[C@@H]1Cc1ccc2c(c1F)CN(C1CCC(=O)NC1=O)C2=O (stereo partly drawn) [Example 320, 3-(5-(((2R,3S)-3-((5,5-difluoropentan-2-yl)amino)tetrahydro-2H-pyran-2-yl)methyl)-4-fluoro-1-oxoisoindolin-2-yl)piperidine-2,6-dione] | – | – | > 1000 | – | 11 | – | 93 | – | – |
| CC(CCCC(F)(F)F)N[C@H]1CCCO[C@@H]1Cc1ccc2c(c1F)CN(C1CCC(=O)NC1=O)C2=O (some centres unmarked) [Example 321] | – | – | 371 | – | 6 | – | 94 | – | 44 |
| CCC(C)(C)N[C@H]1CCCC[C@@H]1Cc1ccc2c(c1)CN(C1CCC(=O)NC1=O)C2=O (stereo partly drawn) [Example 322, 3-(1-oxo-5-(((1R,2S)-2-(tert-pentylamino)cyclohexyl)methyl)isoindolin-2-yl)piperidine-2,6-dione] | – | – | > 1000 | – | 54 | – | 72 | – | – |
| O=C1CCC(N2Cc3cc(C[C@H]4CCCC[C@@H]4NC4CCC(OC(F)F)CC4)ccc3C2=O)C(=O)N1 (stereo partly drawn) [Example 323, 3-(5-(((1R,2S)-2-((4-(difluoromethoxy)cyclohexyl)amino)cyclohexyl)methyl)-1-oxoisoindolin-2-yl)piperidine-2,6-dione] | – | – | 50 | – | 3 | – | 96 | – | 45 |
| O=C1CCC(N2Cc3cc(C[C@H]4CCCCC[C@@H]4NC4CCC(F)(F)CC4)ccc3C2=O)C(=O)N1 (some centres unmarked) [Example 340] | – | – | > 1000 | – | 76 | – | 55 | – | – |
| O=C1CCC(N2Cc3cc(C[C@H]4C[C@@H](F)CC[C@@H]4NC4CCC(F)(F)CC4)ccc3C2=O)C(=O)N1 (some centres unmarked) [Example 341] | – | – | > 1000 | – | 21 | – | 87 | – | – |

Second part, the molecule after the results:

| Dmax (IKZF2 [1]) [%] | DC50 (IKZF2 [1]) [nM] | DC50 (IKZF1; HEK293 HiBiT) [nM] | IKZF1 Dmax (IKZF1; HEK293 HiBiT, maximum degradation at the highest concentration tested) [%] | DC50 (IKZF2 [2]) [nM] | IKZF2 Dmax (IKZF2 [2]) [%] | Dmax (IKZF2 [2]) [%] | IKZF2 Dmax (IKZF2 [1]) [%] | Dmax (IKZF1; [3]) [%] | Compound |
| --- | --- | --- | --- | --- | --- | --- | --- | --- | --- |
| – | – | > 1000 | – | 18 | – | 86 | – | – | O=C1CCC(N2Cc3cc(C[C@H]4C[C@@H](F)CC[C@@H]4NC4CCCCC4)ccc3C2=O)C(=O)N1 (some centres unmarked) [Example 342] |
| – | – | 174 | – | 4 | – | 97 | – | 56 | O=C1CCC(N2Cc3cc(C[C@H]4CCC(F)(F)C[C@@H]4NC4CCC(F)(F)CC4)ccc3C2=O)C(=O)N1 (some centres unmarked) [Example 345] |
| – | – | > 1000 | – | 38 | – | 75 | – | – | O=C1CC[C@H](N2Cc3cc(C[C@H]4CCCC[C@@H]4NC4CCC(F)(F)CC4)cc(F)c3C2=O)C(=O)N1 [Example 347] |
| – | – | 62 | – | 2 | – | 97 | – | 39 | CC(C)N[C@H]1CC(F)(F)CC[C@@H]1Cc1ccc2c(c1)CN(C1CCC(=O)NC1=O)C2=O (some centres unmarked) [Example 348] |
| – | – | 89 | – | 11 | – | 92 | – | 42 | CC(N[C@H]1CC(F)(F)CC[C@@H]1Cc1ccc2c(c1)CN(C1CCC(=O)NC1=O)C2=O)C1CCOCC1 (some centres unmarked) [Example 349] |
| – | – | 124 | – | 10 | – | 94 | – | 50 | O=C1CCC(N2Cc3cc(C[C@H]4CCCC[C@@H]4NC4CCC(F)(F)CC4)c(F)cc3C2=O)C(=O)N1 (some centres unmarked) [Example 350] |
| – | – | 30 | – | 3 | – | 93 | – | 32 | O=C1CCC(N2Cc3cc(C[C@H]4CC[C@@H](F)C[C@@H]4NC4CCC(F)(F)CC4)ccc3C2=O)C(=O)N1 (some centres unmarked) [Example 354] |
| – | – | > 1000 | – | 5 | – | 91 | – | – | O=C1CCC(N2Cc3cc(C[C@H]4CC[C@@H](F)C[C@@H]4NC4CCCCC4)ccc3C2=O)C(=O)N1 (some centres unmarked) [Example 355] |
| – | – | > 1000 | – | 8 | – | 96 | – | – | O=C1CC[C@H](N2Cc3c(ccc(C[C@H]4OCCC[C@@H]4N[C@H]4CC[C@@H](C(F)F)CC4)c3F)C2=O)C(=O)N1 [Example 368] |
| – | – | > 1000 | – | 58 | – | 98 | – | – | O=C1CCC(N2Cc3c(ccc(C[C@H]4OCCC[C@@H]4NC4CCc5cn[nH]c5C4)c3F)C2=O)C(=O)N1 (some centres unmarked) [Example 374] |
| – | – | 48 | – | 4 | – | 99 | – | 65 | O=C1CCC(N2Cc3cc(C[C@H]4CCCC[C@@H]4NC4CCc5c(C(F)(F)F)n[nH]c5C4)ccc3C2=O)C(=O)N1 (some centres unmarked) [Example 375] |
| – | – | 44 | – | 3 | – | 96 | – | 62 | O=C1CCC(N2Cc3cc(C[C@H]4CCCC[C@@H]4NC4CCC(c5ccccn5)CC4)ccc3C2=O)C(=O)N1 (some centres unmarked) [Example 379] |
| – | – | > 1000 | – | 400 | – | 71 | – | – | O=C1CCC(N2Cc3cc(C[C@H]4CCCC[C@@H]4NC4CCC(n5cnnc5)CC4)ccc3C2=O)C(=O)N1 (some centres unmarked) [Example 380] |
| – | – | 108 | – | 207 | – | 65 | – | 29 | C=C1CC[C@H](N)[C@@H](Cc2ccc3c(c2)CN(C2CCC(=O)NC2=O)C3=O)C1 (stereo partly drawn) [Example 381, 3-(5-(((1R,2S)-2-amino-5-methylenecyclohexyl)methyl)-1-oxoisoindolin-2-yl)piperidine-2,6-dione] |
| – | – | > 1000 | – | 6 | – | 97 | – | – | O=C1CCC(N2Cc3c(ccc(O[C@H]4CCCC[C@@H]4NC4CCC(F)(F)CC4)c3F)C2=O)C(=O)N1 (some centres unmarked) [Reference Compound B-1, reference compound] |
